Patent publication US9572343B2, “Active compound combinations” (BAYER CROPSCIENCE AG, priority 2012, dated 2017)
Where two headings read alike, the source gives them in different places.

What was measured:
Format in all cases: in vivo
[1] = tested on: Venturia inaequalis; assay: Venturia test (apples)/preventive; settings: Table I1
Description: (§1) Solvent: 24.5 parts by weight of acetone • 24.5 parts by weight of dimethylacetamide Emulsifier: 1 part by weight of alkylaryl polyglycol ether To produce a suitable preparation of active compound, 1 part by weight of active compound is mixed with the stated amounts of solvent and emulsifier, and the concentrate is diluted with water to the desired concentration. To test for preventive activity, young plants are sprayed with the preparation of active compound at the stated rate of application.

[2] = tested on: Pyrenophora teres; assay: Pyrenophora teres-test (barley)/preventive; settings: Table E1; application rate 160 ppm a.i.
Description: Solvent: 49 parts by weight of N,N-dimethylacetamide
(§2) Emulsifier: 1 part by weight of alkylaryl polyglycol ether
To produce a suitable preparation of active compound, 1 part by weight of active compound or active compound combination is mixed with the stated amounts of solvent and emulsifier, and the concentrate is diluted with water to the desired concentration.
To test for preventive activity, young plants are sprayed with the preparation of active compound or active compound combination at the stated rate of application.
After the spray coating has been dried, the plants are sprayed with a spore suspension of Pyrenophora teres. The plants remain for 48 hours in an incubation cabinet at approximately 20° C. and a relative atmospheric humidity of approximately 100%.
The plants are placed in the greenhouse at a temperature of approximately 20° C. and a relative atmospheric humidity of approximately 80%.
The test is evaluated 8 days after the inoculation. 0% means an efficacy which corresponds to that of the untreated control, while an efficacy of 100% means that no disease is observed.

[3] = tested on: Uromyces appendiculatus; assay: Uromyces test (beans)/preventive; settings: Uromyces appendiculatus, 240 h, read-out: Efficacy in % found; for pest or weed control at 0.2 ppm: application rate 0.2 ppm a.i.
Description: (§3) Solvent: 24.5 parts by weight of acetone • 24.5 parts by weight of dimethylacetamide
as §2
(§4) To produce a suitable preparation of active compound, 1 part by weight of active compound is mixed with the stated amounts of solvent and emulsifier, and the concentrate is diluted with water to the desired concentration.
(§5) To test for preventive activity, young plants are sprayed with the preparation of active compound at the stated rate of application. After the spray coating has dried on, the plants are inoculated with an aqueous spore suspension of the causal agent of bean rust (Uromyces appendiculatus) and then remain for 1 day in an incubation cabinet at approximately 20° C. and a relative atmospheric humidity of 100%.
The plants are then placed in a greenhouse at approximately 21° C. and a relative atmospheric humidity of approximately 90%.
The test is evaluated 10 days after the inoculation. 0% means an efficacy which corresponds to that of the untreated control, while an efficacy of 100% means that no disease is observed.

[4] = tested on: Alternaria solani; assay: Alternaria test (tomatoes)/preventive
Description: as §3, §2, §4
as §5, with “Alternaria solani. The plants are” for “the causal agent of bean rust (Uromyces appendiculatus) and”, “placed” for “remain for 1 day”
The test is evaluated 3 days after the inoculation. 0% means an efficacy which corresponds to that of the untreated control while an efficacy of 100% means that no disease is observed.

[5] = tested on: Blumeria graminis f.sp. hordei; assay: Blumeria test (barley)/preventive; settings: Table B1; application rate 160 ppm a.i.
Description: (§6) Solvent: 49 parts by weight of N,N-dimethylacetamide Emulsifier: 1 part by weight of alkylaryl polyglycol ether To produce a suitable preparation of active compound, 1 part by weight of active compound or active compound combination is mixed with the stated amounts of solvent and emulsifier, and the concentrate is diluted with water to the desired concentration. To test for preventive activity, young plants are sprayed with the preparation of active compound or active compound combination at the stated rate of application. After the spray coating has been dried, the plants are dusted with spores of Blumeria graminis f.sp. hordei.

[6] = tested on: Sphaerotheca fuliginea; assay: Sphaerotheca test (cucumbers)/preventive; settings: Table G1
Description: as §1, with “application. After the spray coating has dried on, the plants are inoculated with an aqueous spore suspension of Sphaerotheca fuliginea.” for “application.”

[7] = tested on: Phakopsora pachyrhizi; assay: Phakopsora test (soybeans)/preventive; settings: Phakopsora pachyrhizi, 168 h, read-out: Efficacy in % found; for pest or weed control at 0.5 ppm: application rate 0.5 ppm a.i.
[8] = tested on: Septoria tritici; assay: Septoria tritici-test (wheat)/preventive; settings: Table F1
Description: as §6, with “sprayed” for “dusted”, “a spore suspension” for “spores”, “Septoria tritici.” for “Blumeria graminis f.sp. hordei.”

[9] = tested on: Leptosphaeria nodorum; assay: Leptosphaeria nodorum test (wheat)/preventive; settings: Table C1
Description: as §6, with “sprayed” for “dusted”, “a spore suspension” for “spores”, “Leptosphaeria nodorum.” for “Blumeria graminis f.sp. hordei.”

In the case of `CCN(C)/C=N/c1cc(C)c(Oc2nc(Cl)c(Cl)s2)cc1C` [(Ie)], the “Efficacy in % found” value ([1]; application rate 0.25 ppm a.i.) is reported as 0%, the “Efficacy in % found” value ([1]; application rate 0.5 ppm a.i.) is reported as 0% and the “Efficacy in % found” value ([1]; application rate 1 ppm a.i.) is reported as 0%. The “Efficacy in % found” value [2] was 57%, the pest or weed control at 0.25 ppm ([3]; Table H1, application rate 0.25 ppm a.i.) was 50% and the pest or weed control at 0.05 ppm ([3]; Table H2, application rate 0.05 ppm a.i.) was 0%. The pest or weed control at 0.1 ppm ([3]; Table H2, application rate 0.1 ppm a.i.) was 0%, the pest or weed control at 0.2 ppm ([3]; Table H2) was 30% and the pest or weed control at 0.2 ppm ([3]; Table H3) was 11%. The “Efficacy in % found” value ([4]; Table A1, application rate 0.5 ppm a.i.) was 0%, the “Efficacy in % found” value ([4]; Table A1, application rate 1 ppm a.i.) was 16% and the “Efficacy in % found” value ([4]; Table A2, application rate 5 ppm a.i.) was 0%. For the same molecule, the “Efficacy in % found” value ([4]; Table A3, application rate 1 ppm a.i.) was 52%, the “Efficacy in % found” value [5] was 50% and the “Efficacy in % found” value ([6]; application rate 0.5 ppm a.i.) was 29%. The “Efficacy in % found” value ([6]; application rate 1 ppm a.i.) was 29%, the “Efficacy in % found” value ([6]; application rate 1.25 ppm a.i.) was 29% and the pest or weed control at 0.25 ppm ([7]; Table D1, application rate 0.25 ppm a.i.) was 15%. It also gave a pest or weed control at 0.5 ppm ([7]; Table D1) of 35%, a pest or weed control at 0.5 ppm ([7]; Table D2) of 45% and a pest or weed control at 0.5 ppm ([7]; Table D3) of 40%. For the same molecule, the pest or weed control at 1 ppm ([7]; Table D3, application rate 1 ppm a.i.) was 65%, the “Efficacy in % found” value ([8]; application rate 160 ppm a.i.) was 0% and the “Efficacy in % found” value ([9]; application rate 80 ppm a.i.) was 30%. For the same molecule, the “Efficacy in % found” value ([9]; application rate 160 ppm a.i.) was 50%.
In the case of `Cn1c(=O)c2sc3c(=O)n(C)c(=O)c3sc2c1=O` [15.61, 2,6-dimethyl-1H,5H-[1,4]dithiino[2,3-c:5,6-c′]dipyrrole-1,3,5,7(2H,6H)-tetrone], the “Efficacy in % found” value ([1]; application rate 50 ppm a.i.) is reported as 84%, the pest or weed control at 100 ppm ([3]; Table H3, application rate 100 ppm a.i.) is reported as 0% and the “Efficacy in % found” value ([6]; application rate 100 ppm a.i.) is reported as 69%. For the same molecule, the pest or weed control at 100 ppm ([7]; Table D3, application rate 100 ppm a.i.) was 8%, the “Efficacy in % found” value ([8]; application rate 800 ppm a.i.) was 0% and the “Efficacy in % found” value ([9]; application rate 800 ppm a.i.) was 20%.
